Experiments:
[1] = Partition coefficient (logP); assay type: physicochemical; details: octanol/water
[2] = target: T1, Adrenergic receptor alpha-1 (Rattus norvegicus, UniProt P15823+P23944+P43140); assay: Binding affinity towards alpha-1 adrenergic receptor from rat brain membranes using [3H]prazosin as radioligand
T1 sequence (P15823 whole entry): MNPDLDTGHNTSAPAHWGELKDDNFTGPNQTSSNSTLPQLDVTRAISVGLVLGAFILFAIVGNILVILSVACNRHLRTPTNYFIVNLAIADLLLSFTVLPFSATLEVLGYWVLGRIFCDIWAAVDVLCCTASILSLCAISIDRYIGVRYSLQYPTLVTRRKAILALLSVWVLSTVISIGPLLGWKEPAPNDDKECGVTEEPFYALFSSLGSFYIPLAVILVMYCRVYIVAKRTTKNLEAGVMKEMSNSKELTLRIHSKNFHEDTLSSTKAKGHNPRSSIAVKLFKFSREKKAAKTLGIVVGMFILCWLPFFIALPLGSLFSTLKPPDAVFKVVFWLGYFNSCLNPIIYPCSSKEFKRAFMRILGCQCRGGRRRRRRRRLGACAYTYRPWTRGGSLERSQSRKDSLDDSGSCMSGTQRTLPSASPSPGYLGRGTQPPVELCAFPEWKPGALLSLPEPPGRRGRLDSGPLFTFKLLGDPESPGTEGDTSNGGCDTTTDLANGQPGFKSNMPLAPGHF
T1 sequence (P23944 whole entry): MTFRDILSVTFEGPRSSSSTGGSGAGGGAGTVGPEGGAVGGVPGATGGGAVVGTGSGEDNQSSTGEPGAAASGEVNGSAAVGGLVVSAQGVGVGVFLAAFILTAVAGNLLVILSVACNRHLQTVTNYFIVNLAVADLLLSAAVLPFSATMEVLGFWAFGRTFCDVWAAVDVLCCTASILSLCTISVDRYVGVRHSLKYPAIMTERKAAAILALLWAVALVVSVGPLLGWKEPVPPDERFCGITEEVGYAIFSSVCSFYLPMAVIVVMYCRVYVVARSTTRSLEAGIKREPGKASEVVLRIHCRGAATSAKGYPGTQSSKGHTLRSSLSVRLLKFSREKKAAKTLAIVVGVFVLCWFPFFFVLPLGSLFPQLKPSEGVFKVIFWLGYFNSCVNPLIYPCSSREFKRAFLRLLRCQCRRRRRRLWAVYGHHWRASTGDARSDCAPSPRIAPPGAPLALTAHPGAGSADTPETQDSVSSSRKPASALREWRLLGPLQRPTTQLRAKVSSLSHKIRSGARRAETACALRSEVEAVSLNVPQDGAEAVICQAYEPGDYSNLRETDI
T1 sequence (P43140 whole entry): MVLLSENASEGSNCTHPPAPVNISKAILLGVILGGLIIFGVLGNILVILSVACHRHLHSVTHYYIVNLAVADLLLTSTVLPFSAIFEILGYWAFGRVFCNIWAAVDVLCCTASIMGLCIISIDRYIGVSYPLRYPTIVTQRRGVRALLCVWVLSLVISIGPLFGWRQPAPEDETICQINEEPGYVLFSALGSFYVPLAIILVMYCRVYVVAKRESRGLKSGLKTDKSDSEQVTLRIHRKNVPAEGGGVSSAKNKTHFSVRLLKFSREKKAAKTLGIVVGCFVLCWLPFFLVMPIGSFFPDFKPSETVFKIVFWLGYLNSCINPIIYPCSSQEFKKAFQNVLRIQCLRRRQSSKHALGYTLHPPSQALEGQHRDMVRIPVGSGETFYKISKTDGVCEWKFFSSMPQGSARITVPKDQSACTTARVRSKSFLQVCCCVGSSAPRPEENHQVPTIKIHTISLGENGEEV

[3] = target: T2, 5-hydroxytryptamine receptor 2C (Rattus norvegicus, UniProt P08909)
T2 sequence (P08909 whole entry): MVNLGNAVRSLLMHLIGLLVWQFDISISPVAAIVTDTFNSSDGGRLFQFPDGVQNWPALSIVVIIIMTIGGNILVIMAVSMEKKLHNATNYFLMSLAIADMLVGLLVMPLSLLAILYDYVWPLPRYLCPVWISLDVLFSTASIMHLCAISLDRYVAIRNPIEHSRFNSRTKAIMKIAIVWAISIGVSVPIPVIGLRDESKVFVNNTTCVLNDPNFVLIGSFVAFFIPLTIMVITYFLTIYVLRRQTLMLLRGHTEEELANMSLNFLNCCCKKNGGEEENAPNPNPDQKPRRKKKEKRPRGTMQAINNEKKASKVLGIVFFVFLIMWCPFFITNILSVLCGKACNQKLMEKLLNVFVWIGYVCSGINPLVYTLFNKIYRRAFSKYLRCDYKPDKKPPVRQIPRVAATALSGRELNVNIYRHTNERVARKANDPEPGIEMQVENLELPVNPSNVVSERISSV
Description: Binding affinity towards 5-HT2C receptor from rat using [3H]mesulergine as radioligand

[4] = target: D(1A) dopamine receptor (Rattus norvegicus, UniProt P18901); assay: biochemical
Description: Binding affinity towards D1 CNS receptor of rat corpus striatum using [3H]SCH-23390 as radioligand

[5] = target: T3, D(4) dopamine receptor (Homo sapiens, UniProt P21917); assay: Binding affinity towards human D4.2 receptor
T3 sequence (P21917 whole entry): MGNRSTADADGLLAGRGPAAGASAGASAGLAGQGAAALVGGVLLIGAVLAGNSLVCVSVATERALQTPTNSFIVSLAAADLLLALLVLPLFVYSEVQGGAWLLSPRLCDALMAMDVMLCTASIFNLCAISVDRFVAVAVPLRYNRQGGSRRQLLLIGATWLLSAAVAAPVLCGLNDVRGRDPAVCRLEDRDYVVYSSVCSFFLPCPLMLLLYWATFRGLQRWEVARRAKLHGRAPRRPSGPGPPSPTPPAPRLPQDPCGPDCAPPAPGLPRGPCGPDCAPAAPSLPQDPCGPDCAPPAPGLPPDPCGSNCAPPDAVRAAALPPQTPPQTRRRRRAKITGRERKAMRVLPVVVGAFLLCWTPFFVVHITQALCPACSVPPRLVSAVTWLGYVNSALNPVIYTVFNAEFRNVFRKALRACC

[6] = system: Mus musculus; assay: Inhibition of apomorphine induced climbing affects in mice by administering the compound subcutaneously in mice; assay type: functional; details: sc
[7] = target: T4, Muscarinic acetylcholine receptor M1 (Homo sapiens, UniProt P11229); assay: Inhibition of binding of 1.0 nM [3H]pirenzepine to cloned human Muscarinic acetylcholine receptor M1 expressed in membranes from CHO-K1 cells; assay type: cell-based
T4 sequence (P11229 whole entry): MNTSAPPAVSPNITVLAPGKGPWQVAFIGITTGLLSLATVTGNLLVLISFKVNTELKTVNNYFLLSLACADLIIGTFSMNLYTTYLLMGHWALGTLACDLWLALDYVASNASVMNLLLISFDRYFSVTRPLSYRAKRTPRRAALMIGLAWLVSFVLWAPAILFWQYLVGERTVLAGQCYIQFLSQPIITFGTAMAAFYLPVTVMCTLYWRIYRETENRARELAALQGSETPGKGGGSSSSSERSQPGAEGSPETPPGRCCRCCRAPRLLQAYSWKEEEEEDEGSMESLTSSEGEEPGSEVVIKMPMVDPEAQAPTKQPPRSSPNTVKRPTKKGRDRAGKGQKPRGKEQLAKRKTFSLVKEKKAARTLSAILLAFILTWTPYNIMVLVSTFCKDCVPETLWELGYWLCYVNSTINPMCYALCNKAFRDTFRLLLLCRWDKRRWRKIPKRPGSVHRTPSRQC

[8] = system: Rattus norvegicus; assay: Inhibition of catalepsy in rat by subcutaneous administration of compound; assay type: functional; details: sc
[9] = Delta ED50 value by Subcutaneous administration (ED50 catalepsy-ED50 Climbing); assay type: functional
[10] = target: D(3) dopamine receptor (Homo sapiens, UniProt P35462)
Description: Binding affinity towards human Dopamine receptor D3

[11] = in vivo; details: sc
Description: Therapeutic ratio by Subcutaneous dose of administration (quotient ED50 catalepsy/ED50 climbing)

[12] = target: 5-hydroxytryptamine receptor 2A (Rattus norvegicus, UniProt P14842); assay: biochemical
Description: Binding affinity towards 5-hydroxytryptamine 2A receptor from rat frontal cortex using [3H]ketanserin as radioligand

[13] = system: Mus musculus; assay: Inhibition of apomorphine induced climbing affects in mice by administering the compound perorally in mice; assay type: functional
[14] = system: Rattus norvegicus; assay: Compound is measured for inhibition of catalepsy in rat by peroral administration of compound; assay type: functional; details: po
[15] = Therapeutic ratio by Peroral dose of administration (quotient ED50 catalepsy/ED50 climbing); assay type: ADME, organism-based; details: in vivo, po; read-out: Therapeutic ratio
[16] = Delta ED50 value by peroral administration (ED50 catalepsy-ED50 Climbing); assay type: functional
[17] = system: Mus musculus; assay: Compound is measured for inhibition of apomorphine induced climbing affects in mice by administering the compound subcutaneously (sc) in mice; assay type: functional
[18] = Antipsychotic activity was determined from subcutaneous administration of compound in mice (ED50 catalepsy-ED50 Climbing); assay type: functional
[19] = species: Rattus norvegicus; assay: Ex vivo accumulation of L-DOPA was measured in striatum of rats
[20] = target: T1, Adrenergic receptor alpha-1; assay: In vitro binding affinity towards Alpha-1 adrenergic receptor by the displacement of [3H]prazosin radioligand in rat cortical homogenates
[21] = target: T3, D(4) dopamine receptor; assay: Compound was tested in vitro for its binding affinity towards human Dopamine receptor D4.2
[22] = system: Rattus norvegicus; assay: Compound is measured for inhibition of catalepsy in rats by peroral administration of compound; assay type: functional; details: po
[23] = system: Rattus norvegicus; assay: Compound is measured for inhibition of catalepsy in rats by subcutaneous administration of compound; assay type: functional; details: sc
[24] = Mus musculus, po, read-out: ED50

Sequence of D(1A) dopamine receptor (P18901 whole entry): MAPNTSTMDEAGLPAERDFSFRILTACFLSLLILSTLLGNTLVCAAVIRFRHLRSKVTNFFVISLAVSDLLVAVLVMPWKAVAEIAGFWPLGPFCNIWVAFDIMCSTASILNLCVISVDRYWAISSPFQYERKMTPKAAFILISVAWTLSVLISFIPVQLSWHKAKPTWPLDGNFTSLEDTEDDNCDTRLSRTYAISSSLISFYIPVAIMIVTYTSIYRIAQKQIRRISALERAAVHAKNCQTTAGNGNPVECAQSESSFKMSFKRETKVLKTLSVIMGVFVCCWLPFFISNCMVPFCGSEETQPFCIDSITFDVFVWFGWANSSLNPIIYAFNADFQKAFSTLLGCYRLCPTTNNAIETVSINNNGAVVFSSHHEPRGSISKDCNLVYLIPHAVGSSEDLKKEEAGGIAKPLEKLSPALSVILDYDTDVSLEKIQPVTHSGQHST
Sequence of D(3) dopamine receptor (P35462 whole entry): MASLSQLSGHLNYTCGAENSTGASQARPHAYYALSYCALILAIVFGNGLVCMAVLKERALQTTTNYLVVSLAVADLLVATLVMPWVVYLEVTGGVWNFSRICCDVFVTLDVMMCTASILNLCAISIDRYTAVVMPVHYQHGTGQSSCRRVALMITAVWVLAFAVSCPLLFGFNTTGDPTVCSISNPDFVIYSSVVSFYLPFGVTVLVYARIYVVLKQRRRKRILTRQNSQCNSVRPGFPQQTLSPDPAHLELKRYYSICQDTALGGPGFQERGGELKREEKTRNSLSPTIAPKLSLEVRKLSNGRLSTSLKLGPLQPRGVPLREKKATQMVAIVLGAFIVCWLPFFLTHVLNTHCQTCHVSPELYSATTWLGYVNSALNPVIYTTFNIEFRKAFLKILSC
Sequence of 5-hydroxytryptamine receptor 2A (P14842 whole entry): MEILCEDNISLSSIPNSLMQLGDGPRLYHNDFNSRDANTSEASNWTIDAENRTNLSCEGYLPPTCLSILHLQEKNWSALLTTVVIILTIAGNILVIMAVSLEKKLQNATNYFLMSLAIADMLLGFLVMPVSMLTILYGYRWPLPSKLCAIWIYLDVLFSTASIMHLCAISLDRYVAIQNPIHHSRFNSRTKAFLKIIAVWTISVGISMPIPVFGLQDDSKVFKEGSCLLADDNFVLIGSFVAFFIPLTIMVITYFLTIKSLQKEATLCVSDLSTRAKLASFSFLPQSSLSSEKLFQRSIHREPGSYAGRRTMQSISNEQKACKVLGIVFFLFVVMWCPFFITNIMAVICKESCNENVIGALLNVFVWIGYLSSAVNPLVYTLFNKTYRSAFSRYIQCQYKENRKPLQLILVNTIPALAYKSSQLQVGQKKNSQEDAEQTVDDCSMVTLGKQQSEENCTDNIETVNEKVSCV

Compound: CN1CCN(C2=Nc3ccccc3Nc3ccc(OS(C)(=O)=O)cc32)CC1
- logP [1]: 1.8
- IC50 [2]: 0.16 µM
- IC50 [3]: 1.2 µM
- IC50 [4]: 2.1 µM

Compound: CN1CCN(C2=Nc3ccccc3Nc3ccc(O)cc32)CC1
- logP [1]: 2.21

Compound: CN1CCN(C2=Nc3cc(OS(=O)(=O)C(F)(F)F)ccc3Nc3ccccc32)CC1
- logP [1]: 3.58

Compound: CN1CCN(C2=Nc3cc(Cl)ccc3Nc3ccc(OS(=O)(=O)C(F)(F)F)cc32)CC1
- logP [1]: 4.3
- IC50 [2]: 0.0071 µM
- IC50 [5]: 0.49 µM
- ED50 [6]: 8.2 mg/kg
- IC50 [7]: 0.054 µM
- ED50 [8]: > 50 mg/kg
- Delta ED50 [9]: >41.8 mg/kg
- IC50 [3]: 0.013 µM
- IC50 [10]: 0.052 µM
- selectivity ratio [11]: > 6.1
- IC50 [12]: 0.023 µM
- IC50 [4]: 0.2 µM

Compound: CN1CCN(C2=Nc3cc(O)ccc3Nc3ccccc32)CC1
- logP [1]: 2.21

Compound: CN1CCN(C2=Nc3cc(OS(C)(=O)=O)ccc3Nc3ccccc32)CC1
- logP [1]: 1.8
- IC50 [2]: 8.7 µM
- IC50 [7]: 0.038 µM
- IC50 [3]: 7.4 µM
- IC50 [12]: 4.9 µM
- IC50 [4]: 22 µM

Compound: CN1CCN(C2=Nc3ccccc3Nc3ccc(OS(=O)(=O)C(F)(F)F)cc32)CC1
- logP [1]: 3.58
- IC50 [5]: 0.12 µM
- ED50 [13, 24]: 11 mg/kg
- ED50 [6]: 2.1 mg/kg
- IC50 [7]: > 1 µM
- ED50 [14]: > 100 mg/kg
- ED50 [8]: > 44 mg/kg
- selectivity ratio [15]: > 9
- Delta ED50 [9]: >41.9 mg/kg
- Delta ED50 [16]: >89 mg/kg
- IC50 [10]: 0.053 µM
- selectivity ratio [11]: > 20
- IC50 [12]: 0.043 µM

Compound: COc1ccc2c(c1)C(N1CCN(C)CC1)=Nc1ccccc1N2
- logP [1]: 2.71

Compound: COc1ccc2c(c1)N=C(N1CCN(C)CC1)c1ccccc1N2
- logP [1]: 2.71

Compound: CN1CCN(C2=Nc3ccccc3Sc3ccc(OS(=O)(=O)C(F)(F)F)cc32)CC1
- logP [1]: 4.04
- IC50 [2]: 0.0036 µM
- IC50 [5]: 0.57 µM
- ED50 [6]: 2.6 mg/kg
- IC50 [7]: 0.46 µM
- ED50 [8]: 30 mg/kg
- Delta ED50 [9]: 27.4 mg/kg
- IC50 [3]: 0.28 µM
- IC50 [10]: 0.008 µM
- selectivity ratio [11]: 11.5
- IC50 [12]: 0.11 µM
- IC50 [4]: 0.1 µM

Compound: CN1CCN(C2=Nc3ccccc3Sc3ccc(Cl)cc32)CC1 [CLOTHIAPINE]
- ED50 [17]: 0.27 mg/kg
- ED50 [8]: 0.72 mg/kg
- Delta ED50 [18]: 0.45 mg/kg
- selectivity ratio [11]: 2.7

Compound: CN1CCN(C2=Nc3cc(Cl)ccc3Nc3ccccc32)CC1 [CLOZAPINE]
- logP [1]: 3.48
- ED50 [13, 24]: 17 mg/kg
- ED50 [6]: 5.6 mg/kg
- ED50 [14]: > 100 mg/kg
- ED50 [8]: > 32.6 mg/kg
- ED50 [19]: 17 mg/kg

Compound: O=C(CCCN1CCC(O)(c2ccc(Cl)cc2)CC1)c1ccc(F)cc1 [HALOPERIDOL]
- logP [1]: 3.98
- ED50 [6]: 0.1 mg/kg
- ED50 [14]: 1.5 mg/kg
- ED50 [8]: 0.25 mg/kg
- ED50 [19]: 0.1 mg/kg

Compound: CN1CCN(C2=Nc3ccccc3Nc3ccc(Cl)cc32)CC1 [ISOCLOZAPINE]
- logP [1]: 3.48
- IC50 [5]: 0.11 µM
- ED50 [6]: 1.7 mg/kg
- ED50 [8]: 2 mg/kg
- Delta ED50 [9]: 0.3 mg/kg
- IC50 [10]: 0.12 µM

Compound: CN1CCN(C2=Nc3ccccc3Oc3ccc(Cl)cc32)CC1 [LOXAPINE]
- IC50 [20]: 0.018 µM
- IC50 [21]: 0.014 µM
- ED50 [13]: 0.04 mg/kg
- ED50 [13, 24]: 0.04 mg/kg
- IC50 [7]: 5.5 µM
- ED50 [22]: < 1 mg/kg
- ED50 [23]: 0.35 mg/kg
- IC50 [10]: 0.022 µM
